pKi: −log10 of the molar value.
Experiments:
[1] = Compound was tested for the toxic effect in mice after intraperitoneal injection; assay type: ADME, organism-based; settings: mouse, in vivo, ip
[2] = In vitro inhibition of 3-deoxy-D-manno-2-octulosonate cytidylyltransferase (CMP-KDO) synthetase a key enzyme in the biosynthesis of the lipopolysaccharide (LPS) of Gram-negative bacteria
[3] = In vitro inhibition of (3-deoxy-D-manno-2-octulosonate cytidylyltransferase) CMP-KDO synthetase a key enzyme in the biosynthesis of the lipopolysaccharide (LPS) of Gram-negative bacteria; design: species or system Escherichia coli

Compound	LD50 [1]	also measured
CSSc1cccc2cccc(COC(C)=O)c12	> 1000 mg/kg	–
c1cc2c3c(cccc3c1)SC2	~640 mg/kg	–
NC[C@@H](O)[C@H]1O[C@H](C(=O)O)C[C@@H](O)[C@H]1O	–	pKi [2]: 5.40
O=C(O)[C@@H]1C[C@@H](O)[C@@H](O)[C@@H]([C@H](O)CO)O1	–	pKi [3]: 4.92
